Measurements published in patent publication EP4725957A1, “GROUP OF CYCLIC ALKALINE LIPOPEPTIDE COMPOUNDS, AND PREPARATION METHOD THEREFOR AND USE THEREOF” (Institute of Medicinal Biotechnology, Chinese Academy of …, priority 2023, dated 2024).
Converted amounts (≈) assume the structure as drawn. Bridge positions count the residues as written; N and C are the ends. Square brackets hold non-standard residues; d marks the D form. Peptide text beside a SMILES is read from it. * marks the point of attachment. Heptanoyl(6-Me) = CC(C)CCCCC(=O)*; X1 = CC[C@H](C)CCCCC(=O)*; Heptanoyl = CCCCCCC(=O)*; Octanoyl = CCCCCCCC(=O)*; Dab = NCC[C@H](N)C(=O)O

Columns and labels:
Format in all cases: cell-based
[1] = tested on: Acinetobacter baumannii ABA19-1; settings: ABA19-1
Method: (§1) The minimal inhibitory concentration (MIC) was determined by the broth microdilution method according to the recommended procedures of the Clinical and Laboratory Standards Institute (CLSI).
(§2) An appropriate amount of the cyclic lipopeptide compounds prepared in Examples 1-120 and the reference standards were weighed and dissolved in sterile pure water. An appropriate volume of the mother solution was subjected to ten-fold dilution with sterile Mueller-Hinton (MH) broth to a concentration of 0.256 mg/mL. Half of the drug solution was aliquoted into 96-well reagent reservoirs, while the other half was subjected to two-fold serial dilution with sterile MH broth before being transferred into deep-well reagent reservoirs. The above steps were repeated, so that the drug concentrations in the reagent reservoirs were adjusted to 128, 64, 32, 16, 8, 4, 2, 1, 0.5, 0.25, 0.125 and 0.06 mg/L in sequence, and all solutions were prepared and used immediately. Several colonies were picked from agar plates cultured for 18-24 h and directly suspended in sterile normal saline, and the concentration of the bacterial suspension was adjusted to 0.5 McFarland units. The calibrated bacterial suspension was diluted with MH broth to a concentration of (4-8) × 10^5 colony-forming units per milliliter (CFU/mL) and prepared and used immediately. A volume of 100 µL of the aforementioned compounds of the present disclosure (e.g., the compounds prepared in the examples) and reference solutions at different concentrations was separately pipetted into wells 1 to 12 of sterile 96-well polystyrene plates, and an additional 100 µL of the aforementioned inoculum was added to each well. The final concentrations of the samples in the wells were adjusted to 64, 32, 16, 8, 4, 2, 1, 0.5, 0.25, 0.125, 0.06 and 0.03 mg/L, respectively, and the final concentration of the inoculum in each well was (2-4) × 10^5 CFU/mL. Additional growth control wells were set up, each containing 100 µL of the inoculum and 100 µL of sterile MH broth. The test substances and inocula in all wells were mixed thoroughly and then sealed. The inoculated 96-well plates were incubated in an incubator at 35-37°C for 16-20 h.
(§3) The strains used for the antibacterial activity assay were obtained from the American Type Culture Collection (ATCC) and clinical isolates.
(§4) The strains employed for the antibacterial activity assay included Escherichia coli ATCC BAA-2523, ATCC BAA-2340 (KPC), Klebsiella pneumoniae KPN+19-15, ATCC BAA-1705 (KPC), Pseudomonas aeruginosa PAE19-3, ATCC 27853, Acinetobacter baumannii ABA19-1, and NCTC 13304 (OXA-27).

[2] = tested on: Acinetobacter baumannii NCTC 13304 (OXA-27); settings: NCTC 13304
Method: as §1, §2, §3, §4

[3] = tested on: Escherichia coli ATCC BAA-2340 (KPC); settings: ATCC BAA-2340
Method: as §1, §2, §3, §4

[4] = tested on: Escherichia coli ATCC BAA-2523; settings: ATCC BAA-2523
Method: as §1, §2, §3, §4

[5] = tested on: Klebsiella pneumoniae ATCC BAA-1705 (KPC); settings: ATCC BAA-1705
Method: as §1, §2, §3, §4

[6] = tested on: Klebsiella pneumoniae KPN+19-15; settings: KPN+19-15
Method: as §1, §2, §3, §4

[7] = tested on: Pseudomonas aeruginosa ATCC 27853; settings: ATCC 27853
Method: as §1, §2, §3, §4

[8] = tested on: Pseudomonas aeruginosa PAE19-3; settings: PAE19-3
Method: as §1, §2, §3, §4

[9] = Nephrotoxicity assay: in vitro cytotoxicity of HK-2 cells by CCK-8 assay; settings: human, HK-2 cells (human renal), 72 h incubation with drug-containing medium
Method: In vitro cytotoxicity detection of HK-2 cells was performed by the CCK-8 assay.
The culture medium for human renal HK-2 cells was a complete RPMI-1640 medium (Invitrogen) supplemented with 10% fetal bovine serum (FBS, Gibco). The cryopreservation solution was composed of 90% FBS and 10% dimethyl sulfoxide (DMSO), and the cells were preserved long-term in liquid nitrogen. Cells were cultured in a sterile incubator with a humidified atmosphere containing 5% CO2 at 37°C. When the cell density reached 70%-80%, cell digestion and subculture were conducted. The cyclic lipopeptide compounds prepared in Examples 1-120 were weighed and dissolved in sterile water to prepare a mother solution with a concentration of 1 mg/mL. Drug-containing culture media were then formulated, with the final concentrations set as 500, 250, 200, 100, 50, 25, and 12.5 µg/mL, respectively. Cells were adjusted to a density of 5 × 10^4 cells/mL and seeded into 96-well plates, with 100 µL of cell suspension added to each well. After stable incubation for 24 h, the original medium was replaced with the prepared drug-containing medium, and the plates were incubated in the incubator for an additional 72 h. The medium was gently aspirated, and 100 µL of blank medium containing 10% CCK-8 was added to each well. After incubation in the incubator for 3 h, the optical density (OD) values at 450 nm were measured using a BIOTEK microplate reader. The experiment was repeated three times. For each replicate, polymyxin B was set as the positive drug, and a drug-free blank group was established as the control. The cell viability (%) was calculated by the formula: Cell viability (%) = [(OD of drug-treated group - OD of zero-setting) / (OD of drug-free group - OD of zero-setting)] × 100%. The half-maximal inhibitory concentration (IC50) values were calculated through logarithmic regression analysis.
The cells used for the nephrotoxicity assay were obtained from the ATCC ( American Type Culture Collection). The Cell Counting Kit-8 (CCK-8) used in the assay was supplied by Beyotime Biotechnology Co., Ltd.

Compound: CC[C@H](C)CCCCC(=O)N[C@@H](CCN)C(=O)N[C@H](C(=O)N[C@@H](CCN)C(=O)N[C@H]1CCNC(=O)[C@H]([C@@H](C)O)NC(=O)[C@H](CCN)NC(=O)[C@H](CCN)NC(=O)[C@H]([C@@H](C)O)NC(=O)[C@@H](Cc2ccccc2)NC(=O)[C@H](CCN)NC1=O)[C@@H](C)O [Compound 16, (S)-6-methyloctanoyl-Dab-Thr-Dab-ring(4-10)[Dab-Dab-D-Phe-Thr-Dab-Dab-Thr]] (X1-[Dab]T[Dab][Dab][Dab][dF]T[Dab][Dab]T; lactam 4-C)
- MIC [1]: ≤0.03 µg/mL
- MIC [2]: ≤0.03 µg/mL
- MIC [3]: ≤0.03 µg/mL
- MIC [4]: ≤0.03 µg/mL
- MIC [5]: ≤0.03 µg/mL
- MIC [6]: ≤0.03 µg/mL
- MIC [7]: 0.5 µg/mL (≈ 0.42 µM)
- MIC [8]: 0.5 µg/mL (≈ 0.42 µM)
- IC50 at 72 h [9]: > 500 µg/mL

Compound: CC(C)CCCCC(=O)N[C@@H](CCN)C(=O)N[C@H](C(=O)N[C@@H](CCN)C(=O)N[C@H]1CCNC(=O)[C@H]([C@@H](C)O)NC(=O)[C@H](CCN)NC(=O)[C@H](CCN)NC(=O)[C@H]([C@@H](C)O)NC(=O)[C@@H](Cc2ccccc2)NC(=O)[C@H](CCN)NC1=O)[C@@H](C)O [Compound 17, 6-methylheptanoyl-Dab-Thr-Dab-ring(4-10)[Dab-Dab-D-Phe-Thr-Dab-Dab-Thr]] ({Heptanoyl(6-Me)}-[Dab]T[Dab][Dab][Dab][dF]T[Dab][Dab]T; lactam 4-C)
- MIC [1]: 0.5 µg/mL (≈ 0.425 µM)
- MIC [2]: 0.25 µg/mL (≈ 0.212 µM)
- MIC [3]: ≤0.03 µg/mL
- MIC [4]: 0.06 µg/mL (≈ 0.051 µM)
- MIC [5]: 0.5 µg/mL (≈ 0.425 µM)
- MIC [6]: ≤0.03 µg/mL
- MIC [7]: 0.5 µg/mL (≈ 0.425 µM)
- MIC [8]: 0.5 µg/mL (≈ 0.425 µM)
- IC50 at 72 h [9]: > 500 µg/mL

Compound: CCCCCCCC(=O)N[C@@H](CCN)C(=O)N[C@H](C(=O)N[C@@H](CCN)C(=O)N[C@H]1CCNC(=O)[C@H]([C@@H](C)O)NC(=O)[C@H](CCN)NC(=O)[C@H](CCN)NC(=O)[C@H]([C@@H](C)O)NC(=O)[C@@H](Cc2ccccc2)NC(=O)[C@H](CCN)NC1=O)[C@@H](C)O [Compound 18, Octanoyl-Dab-Thr-Dab-ring(4-10)[Dab-Dab-D-Phe-Thr-Dab-Dab-Thr]] (Octanoyl-[Dab]T[Dab][Dab][Dab][dF]T[Dab][Dab]T; lactam 4-C)
- MIC [1]: 0.5 µg/mL (≈ 0.425 µM)
- MIC [2]: 0.25 µg/mL (≈ 0.212 µM)
- MIC [3]: 0.06 µg/mL (≈ 0.051 µM)
- MIC [4]: ≤0.03 µg/mL
- MIC [5]: 0.5 µg/mL (≈ 0.425 µM)
- MIC [6]: ≤0.03 µg/mL
- MIC [7]: 0.5 µg/mL (≈ 0.425 µM)
- MIC [8]: 0.5 µg/mL (≈ 0.425 µM)
- IC50 at 72 h [9]: > 500 µg/mL

Compound: CCCCCCC(=O)N[C@@H](CCN)C(=O)N[C@H](C(=O)N[C@@H](CCN)C(=O)N[C@H]1CCNC(=O)[C@H]([C@@H](C)O)NC(=O)[C@H](CCN)NC(=O)[C@H](CCN)NC(=O)[C@H]([C@@H](C)O)NC(=O)[C@@H](Cc2ccccc2)NC(=O)[C@H](CCN)NC1=O)[C@@H](C)O [Compound 19, Heptanoyl-Dab-Thr-Dab-ring(4-10)[Dab-Dab-D-Phe-Thr-Dab-Dab-Thr]] (Heptanoyl-[Dab]T[Dab][Dab][Dab][dF]T[Dab][Dab]T; lactam 4-C)
- MIC [1]: 0.5 µg/mL (≈ 0.43 µM)
- MIC [2]: 0.25 µg/mL (≈ 0.215 µM)
- MIC [3]: 0.03 µg/mL (≈ 0.0258 µM)
- MIC [4]: 0.03 µg/mL (≈ 0.0258 µM)
- MIC [5]: 0.06 µg/mL (≈ 0.0516 µM)
- MIC [6]: 0.03 µg/mL (≈ 0.0258 µM)
- MIC [7]: 2 µg/mL (≈ 1.72 µM)
- MIC [8]: 2 µg/mL (≈ 1.72 µM)
- IC50 at 72 h [9]: > 500 µg/mL
